Measured values from article PMC5905287, “Synthesis and in vitro biochemical evaluation of oxime bond-linked daunorubicin–GnRH-III conjugates developed for targeted drug delivery” (Beilstein Journal of Organic Chemistry, 2018).
Read-outs that look alike come from different tables or passages of the source. Non-standard residues stand in square brackets, D forms with d. Residues, ends and D or L forms follow the SMILES beside them. *: point of attachment. Daunorubicin(13-NOCH2CO) = COc1cccc2c1C(=O)c1c(O)c3c(c(O)c1C2=O)C[C@@](O)(C(C)=NOCC(=O)*)C[C@@H]3O[C@H]1C[C@H](N)[C@H](O)[C@H](C)O1; pGlu = O=C1CC[C@@H](C(=O)O)N1; Butyryl = CCCC(=O)*

What was measured:
[1] = test system: HT-29 human colon cancer cell line; assay: In vitro cytostatic effect, alamarBlue assay, HT-29; type: cell-based
Text: Cell lines often function as the first model system of choice to study biological processes or to test the efficiency of drugs or drug conjugates and their cytotoxic effects. Immortal cell lines offer various benefits, for instance they are easy to handle, cost-effective and provide consistent sample and reproducible results. Nevertheless, cell lines also present the disadvantage that after a period of continuous growth, cell characteristics can change and dedifferentiate in culture. The serial passaging can cause genotypic and phenotypic variations and the state of confluency can also affect gene expression pattern in some cell lines. Due to this, the usage of internal standards during the evaluation of new potential candidates might be necessary to ensure comparability with previous results. The cytostatic effect of the novel GnRH-III bioconjugates was determined on HT-29 human colon cancer and MCF-7 human breast cancer cell lines by alamarBlue® assay. For a better comparison, the well-studied bioconjugates GnRH-III–[^8Lys(Dau=Aoa)] (K1) and GnRH-III–[^4Lys(Bu), ^8Lys(Dau=Aoa)] (K2) were used as positive controls and internal standards. The corresponding IC50 values were calculated by using nonlinear regression (sigmoidal dose response) (Figure 3, Table 2). Unfortunately, the D-Trp containing compounds 3 and 6 started to precipitate in both cell culture media at higher concentrations limiting the concentration down to a maximum of 10 µM. This effect could not be prevented by using DMSO instead of ddH2O for the preparation of the stock solutions. Unfortunately, the lower concentration range with a maximum of 10 µM was not sufficient to achieve the dose-response. […] Nevertheless, the replacement of ^6Asp by D-Asp, D-Glu or D-Trp led to a decreased cytostatic effect on the estimated cancer cell lines.
MCF-7 human breast adenocarcinoma cells were cultured in Dulbecco’s Modified Eagle Medium (DMEM, Lonza, Basel, Switzerland), supplemented with 10% (v/v) fetal bovine serum (FBS, Lonza), L-glutamine (2 mM, Lonza), non-essential amino acids (NEAA, Sigma-Aldrich Kft), sodium pyruvate (1 mM, Lonza) and penicillin-streptomycine (Lonza). […]
Cells were seeded to 96-well plates (Sarstedt, Nümbrecht, Germany, 5 × 10^3 cells/well) one day prior to the treatment in complete cell medium. […] Fluorescence was detected using Synergy H4 multi-mode microplate reader (BioTek, Winooski, VT, USA), excitation and emission wavelengths were set to 570 and 620 nm, respectively. Cytostasis was measured using 4 parallels, each experiment was repeated twice. Cytostatic effect (and IC50 values) were calculated by using nonlinear regression (sigmoidal dose response) with Origin Pro8 (OriginLab Corp., Northampton, MA, USA.).

GnRH-RI [2] = biological target: T1, GnRH-RI (Homo sapiens, UniProt P30968); assay: Competitive inhibition of [125I][6D-Trp]-GnRH-I binding, human pituitary membranes; parameters: human prostate cancer cells were obtained from a patient at the time of initial surgical treatment; from tissue; host or cells: human prostate cancer specimen from a patient (surgery); membrane homogenate
T1 sequence (P30968 1-328): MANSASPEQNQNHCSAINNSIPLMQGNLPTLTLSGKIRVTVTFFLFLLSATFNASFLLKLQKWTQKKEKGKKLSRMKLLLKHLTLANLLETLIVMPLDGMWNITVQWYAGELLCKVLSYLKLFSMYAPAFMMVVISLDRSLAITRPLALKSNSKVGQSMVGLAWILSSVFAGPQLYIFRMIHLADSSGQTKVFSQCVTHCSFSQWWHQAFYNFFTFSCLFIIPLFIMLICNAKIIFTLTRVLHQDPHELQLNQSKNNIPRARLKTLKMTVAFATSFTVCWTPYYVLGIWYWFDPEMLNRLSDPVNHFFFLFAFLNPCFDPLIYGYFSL
Protocol: (§1) To investigate the binding affinity of the novel compounds to the GnRH-receptor, an in vitro ligand competition assay has been performed on human pituitary and GnRH-R positive human prostate cancer tissues. Hereby, the displacement of radiolabeled triptorelin by the unlabeled bioconjugates 1, 2, 4 and 5 was determined. For a better comparison, the bioconjugates K1 and K2 were also analyzed and used as reference. The obtained results summarized in Table 3 point out that all bioconjugates replaced [^125I]-triptorelin with IC50 values in low nanomolar range. […] (1.6 nM and 0.9 nM) and GnRH-II–[D-Lys^6(Dau=Aoa)] (4.2 nM and 2.1 nM).
(§2) Radiolabeled triptorelin was used for displacement studies to evaluate the binding affinity of the conjugates K1, K2, 1, 2, 4 and 5 to GnRH-RI on human pituitary and human prostate cancer cells. […] The binding affinities of the nonradio-labeled GnRH-III bioconjugates to GnRH-RI were determined by displacement of [^125I]-GnRH-I-[^6D-Trp] performing an in vitro ligand competition assay as recently reported. […] Supernatants were aspirated and the bottoms of the tubes containing the pellet were cut off and counted in a gamma counter. Protein concentration was determined by the method of Bradford using a Bio-Rad protein assay kit (Bio-Rad Laboratories, USA). […]

GnRH-RI [3] = biological target: T1, GnRH-RI; assay: Competitive inhibition of [125I][6D-Trp]-GnRH-I binding, human prostate cancer membranes; parameters: human prostate cancer cells were obtained from a patient at the time of initial surgical treatment; from tissue; host or cells: human prostate cancer specimen from a patient (surgery); membrane homogenate
Protocol: as §1, §2

With `CCCC(=O)NCCCC[C@H](NC(=O)[C@H](Cc1c[nH]c2ccccc12)NC(=O)[C@H](Cc1c[nH]cn1)NC(=O)[C@@H]1CCC(=O)N1)C(=O)N[C@@H](Cc1c[nH]cn1)C(=O)N[C@H](CCC(=O)O)C(=O)N[C@@H](Cc1c[nH]c2ccccc12)C(=O)N[C@@H](CCCCNC(=O)CON=C(C)[C@]1(O)Cc2c(O)c3c(c(O)c2[C@@H](O[C@H]2C[C@H](N)[C@H](O)[C@H](C)O2)C1)C(=O)c1c(OC)cccc1C3=O)C(=O)N1CCC[C@H]1C(=O)NCC(N)=O` [compound 5, [4Lys(Bu), 6D-Glu, 8Lys(Dau=Aoa)]] ([pGlu]HWK(Butyryl)H[dE]WK(Daunorubicin(13-NOCH2CO))PG-NH2) the IC50 ([1]; 24 h treatment, then 48 h in complete medium, alamarBlue, mean ± SE, read-out: HT-29 IC50) was 13700 ± 2600 nM, the IC50 (GnRH-RI [2]) was 7.9 ± 1.1 nM and the IC50 (GnRH-RI [3]) was 11.6 ± 2 nM.
Work on `COc1cccc2c1C(=O)c1c(O)c3c(c(O)c1C2=O)C[C@@](O)(C(C)=NOCC(=O)NCCCC[C@H](NC(=O)[C@H](Cc1c[nH]c2ccccc12)NC(=O)[C@@H](CCC(=O)O)NC(=O)[C@H](Cc1c[nH]cn1)NC(=O)[C@H](CO)NC(=O)[C@H](Cc1c[nH]c2ccccc12)NC(=O)[C@H](Cc1c[nH]cn1)NC(=O)[C@@H]1CCC(=O)N1)C(=O)N1CCC[C@H]1C(=O)NCC(N)=O)C[C@@H]3O[C@H]1C[C@H](N)[C@H](O)[C@H](C)O1` [compound 2, [6D-Glu, 8Lys(Dau=Aoa)]] ([pGlu]HWSH[dE]WK(Daunorubicin(13-NOCH2CO))PG-NH2) yielded an IC50 ([1]; 24 h) of 10100 ± 1400 nM, an IC50 (GnRH-RI [2]; displacement of [125I]-triptorelin, human pituitary membranes, mean ± SE, read-out: IC50 pituitary) of 23.5 ± 2.1 nM and an IC50 (GnRH-RI [3]; displacement of [125I]-triptorelin, human prostate cancer membranes, mean ± SE, read-out: IC50 prostate cancer) of 10.4 ± 1.3 nM.
